The record followed here is ChEMBL document CHEMBL5291721, “A preclinical secondary pharmacology resource illuminates target-adverse drug reaction associations of marketed drugs” (Nat Commun, 2023).

The target in assay [1] is T1, Alpha-1A adrenergic receptor (Homo sapiens, UniProt P35348).
T1 sequence (P35348 whole entry): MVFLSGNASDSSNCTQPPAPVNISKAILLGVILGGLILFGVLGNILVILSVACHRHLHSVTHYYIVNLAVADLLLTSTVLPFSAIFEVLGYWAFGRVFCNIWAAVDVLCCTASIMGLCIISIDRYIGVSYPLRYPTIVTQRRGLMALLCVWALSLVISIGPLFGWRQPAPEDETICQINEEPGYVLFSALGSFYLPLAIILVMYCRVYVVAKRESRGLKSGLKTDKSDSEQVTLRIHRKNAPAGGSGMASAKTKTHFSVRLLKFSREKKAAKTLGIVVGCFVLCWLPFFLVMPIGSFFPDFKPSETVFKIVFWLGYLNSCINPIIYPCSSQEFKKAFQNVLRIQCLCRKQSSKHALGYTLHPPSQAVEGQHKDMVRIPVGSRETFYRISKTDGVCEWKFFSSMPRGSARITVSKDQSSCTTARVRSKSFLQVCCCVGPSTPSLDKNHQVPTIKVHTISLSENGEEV

Assay [2] deals with Beta-1 adrenergic receptor (Homo sapiens, UniProt P08588). The format is functional.
The target in assay [3] is T2, B2 bradykinin receptor (Homo sapiens, UniProt P30411).
T2 sequence (P30411 whole entry): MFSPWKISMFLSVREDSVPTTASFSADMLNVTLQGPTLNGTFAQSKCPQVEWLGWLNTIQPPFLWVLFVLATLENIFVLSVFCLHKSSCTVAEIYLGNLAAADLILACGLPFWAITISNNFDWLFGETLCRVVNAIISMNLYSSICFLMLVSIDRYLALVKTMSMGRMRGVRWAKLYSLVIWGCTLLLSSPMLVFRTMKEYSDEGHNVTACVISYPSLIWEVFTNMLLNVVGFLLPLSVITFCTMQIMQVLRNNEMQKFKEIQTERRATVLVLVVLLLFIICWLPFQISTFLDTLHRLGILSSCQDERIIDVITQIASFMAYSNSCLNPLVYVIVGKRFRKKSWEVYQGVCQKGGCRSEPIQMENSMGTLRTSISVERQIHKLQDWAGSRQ

In assay [4] the target is T3, Estrogen receptor (Homo sapiens, UniProt P03372).
T3 sequence (P03372 whole entry): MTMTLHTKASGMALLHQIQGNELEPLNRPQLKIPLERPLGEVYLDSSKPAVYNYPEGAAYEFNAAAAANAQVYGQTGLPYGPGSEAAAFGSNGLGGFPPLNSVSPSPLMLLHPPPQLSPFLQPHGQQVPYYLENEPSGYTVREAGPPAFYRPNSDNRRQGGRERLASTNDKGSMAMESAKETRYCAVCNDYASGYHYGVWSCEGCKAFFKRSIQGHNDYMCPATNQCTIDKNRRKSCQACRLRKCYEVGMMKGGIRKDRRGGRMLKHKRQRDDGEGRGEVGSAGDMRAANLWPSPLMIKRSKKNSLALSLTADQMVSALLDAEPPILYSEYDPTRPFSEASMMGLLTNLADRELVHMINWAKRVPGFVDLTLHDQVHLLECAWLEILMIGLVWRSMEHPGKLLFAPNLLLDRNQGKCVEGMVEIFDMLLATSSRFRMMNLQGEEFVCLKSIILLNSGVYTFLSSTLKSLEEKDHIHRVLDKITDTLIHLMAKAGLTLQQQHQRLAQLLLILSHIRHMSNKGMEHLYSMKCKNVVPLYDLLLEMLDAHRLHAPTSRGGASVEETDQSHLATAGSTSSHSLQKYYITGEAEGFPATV

Assay [5] concerns the target T4, Neuropeptide Y receptor type 1 (Homo sapiens, UniProt P25929).
T4 sequence (P25929 whole entry): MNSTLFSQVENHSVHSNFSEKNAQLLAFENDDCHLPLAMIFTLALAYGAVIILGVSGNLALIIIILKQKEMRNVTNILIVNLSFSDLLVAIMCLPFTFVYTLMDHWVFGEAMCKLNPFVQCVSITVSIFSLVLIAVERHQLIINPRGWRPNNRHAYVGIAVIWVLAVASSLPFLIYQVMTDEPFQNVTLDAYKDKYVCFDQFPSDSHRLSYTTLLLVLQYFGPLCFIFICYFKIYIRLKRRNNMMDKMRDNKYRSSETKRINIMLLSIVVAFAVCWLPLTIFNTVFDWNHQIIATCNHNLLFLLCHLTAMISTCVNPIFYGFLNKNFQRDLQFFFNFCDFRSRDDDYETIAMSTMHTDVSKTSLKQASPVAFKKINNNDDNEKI

The target in assay [6] is T5, Progesterone receptor (Homo sapiens, UniProt P06401).
T5 sequence (P06401 whole entry): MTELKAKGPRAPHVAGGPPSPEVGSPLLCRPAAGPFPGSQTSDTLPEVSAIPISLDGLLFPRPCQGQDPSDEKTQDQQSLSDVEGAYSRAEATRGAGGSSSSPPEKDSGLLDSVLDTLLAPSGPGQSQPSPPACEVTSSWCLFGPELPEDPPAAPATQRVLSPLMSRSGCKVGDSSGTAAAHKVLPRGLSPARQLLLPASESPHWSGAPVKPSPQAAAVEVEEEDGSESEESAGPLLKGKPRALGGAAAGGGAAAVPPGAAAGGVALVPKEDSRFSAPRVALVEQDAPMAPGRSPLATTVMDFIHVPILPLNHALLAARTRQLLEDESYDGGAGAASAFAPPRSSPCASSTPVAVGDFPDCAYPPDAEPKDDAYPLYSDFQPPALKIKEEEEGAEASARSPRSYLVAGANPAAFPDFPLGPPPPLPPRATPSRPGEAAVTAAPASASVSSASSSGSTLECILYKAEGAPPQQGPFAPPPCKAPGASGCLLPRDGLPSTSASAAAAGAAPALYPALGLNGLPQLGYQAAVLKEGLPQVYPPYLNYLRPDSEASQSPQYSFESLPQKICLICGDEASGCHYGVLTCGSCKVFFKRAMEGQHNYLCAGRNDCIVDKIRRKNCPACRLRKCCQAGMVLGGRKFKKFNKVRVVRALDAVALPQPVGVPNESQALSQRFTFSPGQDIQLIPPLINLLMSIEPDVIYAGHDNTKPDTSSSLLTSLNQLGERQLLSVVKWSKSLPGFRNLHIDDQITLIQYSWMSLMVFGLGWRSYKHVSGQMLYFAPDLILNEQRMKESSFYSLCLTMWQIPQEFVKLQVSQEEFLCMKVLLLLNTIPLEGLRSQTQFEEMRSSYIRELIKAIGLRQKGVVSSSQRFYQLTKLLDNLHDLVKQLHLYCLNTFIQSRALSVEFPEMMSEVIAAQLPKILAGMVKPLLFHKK
In kind it is functional.

The target of assay [7] is Beta-2 adrenergic receptor (Homo sapiens, UniProt P07550). In kind it is functional, cell-based.
Also: assay procedure not described here.

Sequence of Beta-2 adrenergic receptor (P07550 whole entry): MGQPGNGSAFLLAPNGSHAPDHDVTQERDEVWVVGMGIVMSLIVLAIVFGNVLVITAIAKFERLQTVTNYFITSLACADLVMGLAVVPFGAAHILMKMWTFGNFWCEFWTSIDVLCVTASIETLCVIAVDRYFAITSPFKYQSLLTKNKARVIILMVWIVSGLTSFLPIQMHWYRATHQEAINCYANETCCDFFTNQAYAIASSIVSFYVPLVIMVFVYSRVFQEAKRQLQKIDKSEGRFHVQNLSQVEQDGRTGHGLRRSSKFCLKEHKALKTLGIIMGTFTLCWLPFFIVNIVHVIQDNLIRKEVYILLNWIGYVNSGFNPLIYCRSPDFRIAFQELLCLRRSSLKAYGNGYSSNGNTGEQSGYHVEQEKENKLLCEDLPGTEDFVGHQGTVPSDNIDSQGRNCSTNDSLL
Sequence of Beta-1 adrenergic receptor (P08588 whole entry): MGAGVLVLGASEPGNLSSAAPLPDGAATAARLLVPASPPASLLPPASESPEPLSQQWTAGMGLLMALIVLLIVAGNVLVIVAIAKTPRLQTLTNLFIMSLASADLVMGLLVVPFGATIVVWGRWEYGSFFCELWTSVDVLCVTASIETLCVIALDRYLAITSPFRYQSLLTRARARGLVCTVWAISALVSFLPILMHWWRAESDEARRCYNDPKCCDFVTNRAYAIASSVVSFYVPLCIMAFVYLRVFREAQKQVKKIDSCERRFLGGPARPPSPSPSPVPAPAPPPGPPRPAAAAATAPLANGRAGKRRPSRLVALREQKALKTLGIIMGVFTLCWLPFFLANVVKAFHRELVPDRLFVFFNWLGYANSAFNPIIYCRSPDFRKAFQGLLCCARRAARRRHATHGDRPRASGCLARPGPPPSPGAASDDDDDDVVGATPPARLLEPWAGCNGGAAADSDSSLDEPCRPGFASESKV

For `CC(=O)N[C@H]1[C@H]([C@H](O)[C@H](O)CO)OC(C(=O)O)=C[C@@H]1N=C(N)N` [ZANAMIVIR], the AC50 in assay [1], in assay [2], in assay [3], in assay [4], in assay [5] and in assay [6] was above 30 µM each time.

On to `O=C(Cn1ccnc1[N+](=O)[O-])NCc1ccccc1` [BENZNIDAZOLE], for which the AC50 in assay [2], in assay [3], in assay [4], in assay [5] and in assay [6] was above 30 µM throughout.

As for `CS(=O)(=O)Nc1cc2occ(NC=O)c(=O)c2cc1Oc1ccccc1` [IGURATIMOD], the AC50 in assay [6] was above 30 µM.

In the case of `CCCC(=O)N1CCCN(c2nc(N)c3cc(OC)c(OC)cc3n2)CC1` [BUNAZOSIN], the AC50 in assay [2], in assay [7], in assay [3], in assay [4], in assay [5] and in assay [6] was above 30 µM in each case.

For `NS(=O)(=O)c1cc2c(cc1Cl)NC(CC1CCCC1)NS2(=O)=O` (stereo unspecified) [CYCLOPENTHIAZIDE], the AC50 in assay [7] is above 30 µM.

In turn, `COCC1=C(C(=O)OC(C)OC(=O)OC(C)C)N2C(=O)[C@@H](NC(=O)/C(=N\OC)c3csc(N)n3)[C@H]2SC1` (stereo partly specified) [CEFPODOXIME PROXETIL] came in with an AC50 in assay [7] above 30 µM.

Take `O=P(O)(O)C(O)(Cc1cccnc1)P(=O)(O)O` [RISEDRONIC ACID]: the AC50 in assay [1] is above 10 µM; in assay [2] it was above 30 µM; in assay [3] it was above 30 µM; in assay [4], above 30 µM; in assay [5], above 30 µM; in assay [6] it was above 30 µM.

As to `CN1C(=O)N(C)C2C1N(C)C(=O)N2C` (stereo unspecified) [MEBICAR], the AC50 in assay [7] is above 30 µM.

As for `CC(C(O)c1ccc(O)cc1)N1CCC(Cc2ccccc2)CC1` (stereo unspecified) [IFENPRODIL], the AC50 in assay [2] is 23 µM; in assay [7] it was above 30 µM; in assay [3], above 30 µM; in assay [4], above 30 µM; in assay [5], above 30 µM; in assay [6], above 30 µM.

Turning to `CC(C)NCC1CCc2cc(CO)c([N+](=O)[O-])cc2N1` (stereo unspecified) [OXAMNIQUINE], the AC50 in assay [1], in assay [2], in assay [3], in assay [4], in assay [5] and in assay [6] was above 10 µM in each case.

Consider `CN(C)CCCN1c2ccccc2Sc2ccccc21` [PROMAZINE], for which the AC50 was 0.0171 µM in assay [1]; above 10 µM in assay [2]; above 30 µM in assay [7]; above 30 µM in assay [3]; above 30 µM in assay [5].

As to `CC(=O)N(CC(O)CO)c1c(I)c(C(=O)NCC(O)CO)c(I)c(C(=O)NCC(O)CO)c1I` (stereo unspecified) [IOHEXOL], the AC50 is above 10 µM in assay [1]; above 30 µM in assay [2]; above 30 µM in assay [3]; above 30 µM in assay [4]; above 30 µM in assay [5].

With `CN(CCCN1c2ccccc2CCc2ccccc21)CC(=O)c1ccc(Cl)cc1` [LOFEPRAMINE], the AC50 in assay [2] was above 30 µM; in assay [7] it was above 30 µM; in assay [3], above 10 µM; in assay [4], above 30 µM; in assay [5], above 30 µM.

Consider `O=C1CCC(N2C(=O)c3ccccc3C2=O)C(=O)N1` (stereo unspecified) [THALIDOMIDE], for which the AC50 is above 10 µM in assay [1]; above 10 µM in assay [2]; above 30 µM in assay [7]; above 30 µM in assay [3]; above 30 µM in assay [5].

For `C[N+](C)(C)CC(=O)O` [BETAINE], the AC50 in assay [2], in assay [3], in assay [4], in assay [5] and in assay [6] was above 30 µM in each case.

As to `CN(C)[C@@H]1C(O)=C(C(N)=O)C(=O)[C@@]2(O)C(O)=C3C(=O)c4c(O)ccc(Cl)c4[C@@H](O)[C@H]3C[C@@H]12` [DEMECLOCYCLINE], the AC50 in assay [1], in assay [2], in assay [3] and in assay [5] was above 10 µM in each case.

As for `N[C@@H](CSCC(=O)O)C(=O)O` [CARBOCYSTEINE], the AC50 in assay [2], in assay [3], in assay [4], in assay [5] and in assay [6] was above 30 µM throughout.

Take `O=C(O)c1cccc(-c2noc(-c3ccccc3F)n2)c1`: the AC50 in assay [1] is above 10 µM.

In the case of `O=C(O)CCn1c2c(c3ccccc31)C[C@H](NS(=O)(=O)c1ccc(F)cc1)CC2` [RAMATROBAN], the AC50 in assay [1], in assay [2], in assay [3], in assay [4], in assay [5] and in assay [6] was above 30 µM throughout.

For the compound `CC(=O)O[C@]1(C(C)=O)CC[C@H]2[C@@H]3C[C@H](C)C4=CC(=O)CC[C@]4(C)[C@H]3CC[C@@]21C` [MEDROXYPROGESTERONE ACETATE], the AC50 in assay [2], in assay [3] and in assay [5] was above 30 µM in each case.

Turning to `NS(=O)(=O)c1cc(-c2nnn[nH]2)c(NCc2cccs2)cc1Cl` [AZOSEMIDE], the AC50 in assay [2], in assay [3], in assay [4], in assay [5] and in assay [6] was above 30 µM in each case.

Consider `N/N=c1/cc2c(n[nH]1)CCN(C(=O)c1ccccc1)C2` [ENDRALAZINE], for which the AC50 in assay [7] is above 30 µM.

For `CO/N=C(\C(=O)N[C@@H]1C(=O)N2C(C(=O)OCOC(=O)C(C)(C)C)=C(C)CS[C@H]12)c1csc(N)n1`, in assay [7], the AC50 was above 30 µM.

Compound `Nc1ccc(/N=N/c2ccccc2)c(N)n1` [PHENAZOPYRIDINE] registered an AC50 in assay [7] above 30 µM.

The AC50 is the concentration at which the activity in the assay is half-maximal. Read a high AC50 as weaker potency.
